Laboratory results: patent US6825209B2, “Compounds having unique CB1 receptor binding selectivity and methods for their production and use” (Research Triangle Institute, priority 2002, dated 2004)
Where two headings read alike, the source gives them in different places.

Key:
[1] = target: T1, CB1 receptor (Rattus norvegicus, UniProt P20272); assay: Radioligand displacement in whole rat brain (CB1) membrane preparations; format: binding; details: Table 4, parallel synthesis analogs; for Ki: n = 1, concentration assumes 100% yield; for Max. Disp. %, 3H-SR141716A / Max. Disp. %, 3H-WIN55212-2 / Max. Disp. %, 3H-CP55940: n = 1
T1 construct: Whole rat brains or dissected regions from live CD rats; tissue Charles River or Pel-Freez Biologicals; host or cells: whole rat brain (CD rats), P2 membrane
Source text: CB1 receptor affinity in rat brain.
Methods—membrane preparation from brain. The methods for tissue preparation are essentially those described by Devane et al. (1988) as modified by Compton et al. (1993) and later by Thomas et al. (1998). Whole rat brains or dissected regions from live CD rats from Charles River or Pel-Freez Biologicals (Rogers, Ark.), or human brain sections obtained from the National Disease Research Institute, were allowed to thaw to room temperature on ice. Both whole brain and dissected brain regions were used because different brain regions may express different cannabinoid receptor subtypes (Skaper et al., 1996; Thomas et al., 1998). The tissue was homogenized with a Kontes Potter-Elvehjem glass-Teflon grinding system (Fisher Scientific, Springfield, N.J.) in buffer 1 (320 mM sucrose, 2 mM EDTA, 5 mM MgCl2. The homogenate was centrifuged at 1600 g for 10 min. The supernatant was saved and combined with the two subsequent supernatants obtained from washing and 1600 g centrifugation of the P1 pellet. The combined supernatant fractions were then centrifuged at 39,000 g for 15 min. The P2 pellet was resuspended in 50 mL of buffer 2 (50 mM Tris.HCl, 2 mM EDTA, 5 mM MgCl2, pH 7.0), incubated at 37° C. for 10 min, then centrifuged at 23,000 g for 10 min. The P2 membrane was resuspended in 50 mL of buffer 2, incubated at 30° C. for 40 min, then centrifuged at 11,000 g for 15 min. The final wash-treated P2 pellet was resuspended in assay buffer 3 (50 mM Tris.HCl, 1 mM EDTA, 3 MM MgCl2, pH 7.4). Protein concentrations were determined by the method of Bradford (1976) using Coomassie brilliant blue dye (Bio-Rad, Richmond, Calif.) and BSA standards (bovine serum albumin, fatty acid free, Sigma Chemical Co., St. Louis, Mo.) prepared in assay buffer 3. The membrane preparation was divided into aliquots and stored at −80° C. For use in the binding assay, an aliquot of frozen membranes was thawed on ice and diluted to a concentration of ca. 0.2 mg/mL in assay buffer.
Methods—binding assay in brain membrane preparation. The methods for ligand binding are essentially those described by Devane et al. (1988) with the exception that we used a filtration assay. […] All cannabinoid analogs were prepared by suspension in buffer A from a 1-5 mg/mL ethanolic stock. Following incubation at 30° C. for 1 h, binding was terminated by vacuum filtration through pretreated filters in a 96-well sampling manifold (Millipore, Bedford, Mass.). Reaction vessels were washed at least 3 times with 1 mL of ice cold buffer B (50 mM Tris.HCl, 1 mg/mL BSA). The filter plates were air-dried and sealed on the bottom. Liquid scintillant was added to the wells and the top sealed. After incubating the plates in cocktail for at least 2 h, the radioactivity present was determined by liquid scintillation spectrometry. Assays were done in duplicate, and results represent the combined data of three to six independent experiments. All assays were performed in polypropylene test tubes. The GF/C glassfiber filter plates (Packard, Meriden, Conn.) were pretreated in buffer B for at least 1 h.
(§1) Data analysis. Saturation and displacement data were analyzed by unweighted nonlinear regression of receptor binding data. For displacement studies, curve-fitting and IC50 calculation were done with GraphPad Prism (GraphPad Software, Inc., San Diego, Calif.), which fits the data to one and two-site models and compares the two fits statistically. A similar approach was used for the analysis of isotherm data for calculation of Kd's. A two-site fit was accepted only if it was statistically significant (p<0.05) and the following results were not observed:
(§2) IC50 values were then converted to Ki values by reported methods (Cheng and Prusoff, 1973). The statistical evaluation of curve-fitting data allowed for a non-arbitrary conclusion based on the displacement data.

[2] = target: T2, human CB1 receptor (Homo sapiens, UniProt P21554); assay: Radioligand displacement in human CB1 receptor-transfected cells (HEK-293); format: binding
T2 construct: expressed in transfected cells; host or cells: HEK-293
Protocol: Human CB1 receptor affinity. The alkyl amide analogs of the present invention were examined using transfected cell lines expressing the human CB1 receptor (Table 3).
Methods—binding assay in transfected cell lines. The methods used for performing binding assays in transfected cells expressing human CB1 or CB2 receptors are those used above. The CB1 receptor involved a HEK-293 expression system whereas the CB2 receptor was expressed in CHO-K1 cells. […] The incubations and separations were then performed as described above for rat brain membrane preparations.
as §1, §2

[3] = displacement of 3H-CP55940, whole rat brain, 3H-CP55940
[4] = displacement of 3H-SR141716A, whole rat brain, 3H-SR141716A
[5] = displacement of 3H-WIN55212-2, whole rat brain, 3H-WIN55212-2
[6] = displacement of 3H-CP55940, human CB1 transfected cells, 3H-CP55940, Table 5, parallel synthesis analogs, concentration assumes 100% yield
[7] = displacement of 3H-SR141716A, human CB1 transfected cells, 3H-SR141716A, Table 5, parallel synthesis analogs, concentration assumes 100% yield
[8] = displacement of 3H-WIN55212-2, human CB1 transfected cells, 3H-WIN55212-2, Table 5, parallel synthesis analogs, concentration assumes 100% yield
[9] = human CB1 transfected cells, 3H-CP55940, Table 5, parallel synthesis analogs
[10] = human CB1 transfected cells, 3H-SR141716A, Table 5, parallel synthesis analogs
[11] = human CB1 transfected cells, 3H-WIN55212-2, Table 5, parallel synthesis analogs

T1 sequence (P20272 whole entry): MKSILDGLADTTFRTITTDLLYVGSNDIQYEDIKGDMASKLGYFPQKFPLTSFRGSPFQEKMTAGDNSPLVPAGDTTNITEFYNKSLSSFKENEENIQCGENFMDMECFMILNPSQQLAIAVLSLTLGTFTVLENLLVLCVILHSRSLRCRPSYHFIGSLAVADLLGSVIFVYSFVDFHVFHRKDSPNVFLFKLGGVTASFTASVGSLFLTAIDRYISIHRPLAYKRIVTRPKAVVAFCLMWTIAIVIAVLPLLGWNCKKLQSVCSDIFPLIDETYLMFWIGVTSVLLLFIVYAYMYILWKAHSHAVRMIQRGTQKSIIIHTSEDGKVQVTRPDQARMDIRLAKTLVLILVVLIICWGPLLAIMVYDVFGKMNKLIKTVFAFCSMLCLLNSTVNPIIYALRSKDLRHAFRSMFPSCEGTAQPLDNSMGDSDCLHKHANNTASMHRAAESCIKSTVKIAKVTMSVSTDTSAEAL
T2 sequence (P21554 whole entry): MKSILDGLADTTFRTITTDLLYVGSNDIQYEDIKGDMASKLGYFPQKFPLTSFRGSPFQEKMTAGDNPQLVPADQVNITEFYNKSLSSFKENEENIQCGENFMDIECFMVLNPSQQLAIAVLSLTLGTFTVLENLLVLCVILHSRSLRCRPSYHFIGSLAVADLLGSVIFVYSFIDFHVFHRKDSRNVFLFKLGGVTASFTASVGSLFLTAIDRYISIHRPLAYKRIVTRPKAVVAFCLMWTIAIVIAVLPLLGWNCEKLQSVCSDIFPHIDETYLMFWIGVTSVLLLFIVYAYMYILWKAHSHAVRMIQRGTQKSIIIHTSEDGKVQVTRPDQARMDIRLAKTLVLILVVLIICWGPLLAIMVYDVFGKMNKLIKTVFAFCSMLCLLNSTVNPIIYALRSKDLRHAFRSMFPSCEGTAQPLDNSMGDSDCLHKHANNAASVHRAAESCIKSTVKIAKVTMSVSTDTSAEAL

Row | SMILES | Ki [1, 3] | Ki [1, 4] | Ki [1, 5] | Max. Disp. %, 3H-SR141716A ([1]; whole rat brain, 3H-SR141716A) | Max. Disp. %, 3H-WIN55212-2 ([1]; whole rat brain, 3H-WIN55212-2) | Ki [2, 6] | Ki [2, 7] | Ki [2, 8] | Max. Disp. %, 3H-CP55940 [2, 9] | Max. Disp. %, 3H-SR141716A [2, 10] | Max. Disp. %, 3H-WIN55212-2 [2, 11] | Max. Disp. %, 3H-CP55940 ([1]; whole rat brain, 3H-CP55940) | Max. Disp. %, 3H-CP55940 [2] | Max. Disp. %, 3H-SR141716A [2] | Max. Disp. %, 3H-WIN55212-2 [2] | Ki ([2]; displacement of 3H-CP55940) | Ki ([2]; displacement of 3H-SR141716A) | Ki ([2]; displacement of 3H-WIN55212-2)
1 | Cc1c(C(=O)NC(C)Cc2ccc(Cl)cc2)nn(-c2ccc(Cl)cc2Cl)c1-c1ccc(Cl)cc1 (centres unmarked) [AKS-10262-10] | 18.4 nM | 2.7 nM | 10.1 nM | 95.9% | 86.1% | 22.9 nM | 2.38 nM | 70.2 nM | 94.8% | 100% | 65.5% |  |  |  |  |  |  | 
2 | COCC(C)NC(=O)c1nn(-c2ccc(Cl)cc2Cl)c(-c2ccc(Cl)cc2)c1C (centres unmarked) [AM-17] | 64.4 nM | 22.8 nM | 22.6 nM | 94.1% | 84.8% | 39.8 nM | 17.6 nM | 30.9 nM | 86.3% | 98.7% | 96.8% | 96.2% |  |  |  |  |  | 
3 | Cc1c(C(=O)N2CCC(O)(c3ccccc3)CC2)nn(-c2ccc(Cl)cc2Cl)c1-c1ccc(Cl)cc1 [AM-28] | 113 nM | 41.2 nM | 69.5 nM | 97.2% | 94.4% | 52.1 nM | 28.2 nM | 56.9 nM | 79.6% | 99.2% | 100% | 97.2% |  |  |  |  |  | 
4 | COc1ccc(CCNC(=O)c2nn(-c3ccc(Cl)cc3Cl)c(-c3ccc(Cl)cc3)c2C)cc1 [AM-29] | 92.6 nM | 40.7 nM | 24.7 nM | 95.1% | 82.7% | 56.9 nM | 16.1 nM | 74.5 nM | 80.3% | 96.3% | 100% | 78.8% |  |  |  |  |  | 
5 | Cc1c(C(=O)N2CCc3ccccc3C2)nn(-c2ccc(Cl)cc2Cl)c1-c1ccc(Cl)cc1 [AM-50] | 194 nM | 44.6 nM | 152 nM | 90.5% | 89.0% | 57.7 nM | 21 nM | 166 nM | 66.3% | 90.4% | 74.6% | 88.3% |  |  |  |  |  | 
6 | Cc1c(C(=O)NCCc2ccc(O)cc2)nn(-c2ccc(Cl)cc2Cl)c1-c1ccc(Cl)cc1 [AM-52] | 71.4 nM | 29.8 nM | 326 nM | 100% | 94.9% | 106 nM | 13.6 nM | 162 nM | 96.1% | 99.5% | 100% | 84.7% |  |  |  |  |  | 
7 | CCCCCCCCCCNC(=O)c1nn(-c2ccc(Cl)cc2Cl)c(-c2ccc(Cl)cc2)c1C [BT-1] | 92.8 nM | 45 nM | 1390 nM | 92.5% | 67.4% |  |  |  |  |  |  | 83.6% | 94.5% | 95.4% | 12.4% | 184 nM | 24.6 nM | 63.8 nM

Continued, in another order:

Row | Ki [1, 3] | Ki [1, 4] | Ki [1, 5] | Max. Disp. %, 3H-SR141716A ([1]; whole rat brain, 3H-SR141716A) | Max. Disp. %, 3H-WIN55212-2 ([1]; whole rat brain, 3H-WIN55212-2) | Ki [2, 6] | Ki [2, 7] | Ki [2, 8] | Max. Disp. %, 3H-CP55940 [2, 9] | Max. Disp. %, 3H-SR141716A [2, 10] | Max. Disp. %, 3H-WIN55212-2 [2, 11] | Max. Disp. %, 3H-CP55940 ([1]; whole rat brain, 3H-CP55940) | SMILES | Max. Disp. %, 3H-CP55940 [2] | Max. Disp. %, 3H-SR141716A [2] | Max. Disp. %, 3H-WIN55212-2 [2] | Ki ([2]; displacement of 3H-CP55940) | Ki ([2]; displacement of 3H-SR141716A) | Ki ([2]; displacement of 3H-WIN55212-2)
8 | 91 nM | 11.8 nM | 30.4 nM | 95.4% | 85.8% | 220 nM | 101 nM | 128 nM | 62.6% | 87.3% | 68.1% | 96.4% | COc1ccc(NC(=O)c2nn(-c3ccc(Cl)cc3Cl)c(-c3ccc(Cl)cc3)c2C)cc1 [AN-2] |  |  |  |  |  | 
9 | 109 nM | 53.7 nM | 238 nM | 95.6% | 56.5% | 176 nM | 43.5 nM | 13.8 nM | 79.5% | 89.8% | 31.4% | 82.6% | CCCCCCCCCCCCNC(=O)c1nn(-c2ccc(Cl)cc2Cl)c(-c2ccc(Cl)cc2)c1C [BT-2] |  |  |  |  |  | 
